Measurements: patent publication US12441768B2, “Compositions and methods for treating endometriosis” (EndoMet Biosciences, Inc., priority 2018, dated 2025)
Like-named read-outs stand apart in the source and are kept apart here. Where a SMILES comes first, the peptide text is derived from it.

Tests used:
[1] = molecular target: Wnt-responsive promoter (TCF/LEF); assay: Wnt-dependent luciferase reporter assay; type: cell-based, murine
Summary of the method: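 EC50 (uM) derived from inhibition of luminescence in Wnt3a-stimulated murine 3T3 cells expressing luciferase under a TCF/LEF promoter, with peptides added across a concentration range and vehicle as control.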

β-catenin = molecular target: T1, β-catenin (Homo sapiens, UniProt P35222); assay: KD50 measurement using competitive fluorescence polarization (FP) with labelled TCF4; type: binding; conditions: fluorescence polarization, β-catenin; for Kd: read-out: β-Cat FP KD
T1 sequence (P35222 1-781): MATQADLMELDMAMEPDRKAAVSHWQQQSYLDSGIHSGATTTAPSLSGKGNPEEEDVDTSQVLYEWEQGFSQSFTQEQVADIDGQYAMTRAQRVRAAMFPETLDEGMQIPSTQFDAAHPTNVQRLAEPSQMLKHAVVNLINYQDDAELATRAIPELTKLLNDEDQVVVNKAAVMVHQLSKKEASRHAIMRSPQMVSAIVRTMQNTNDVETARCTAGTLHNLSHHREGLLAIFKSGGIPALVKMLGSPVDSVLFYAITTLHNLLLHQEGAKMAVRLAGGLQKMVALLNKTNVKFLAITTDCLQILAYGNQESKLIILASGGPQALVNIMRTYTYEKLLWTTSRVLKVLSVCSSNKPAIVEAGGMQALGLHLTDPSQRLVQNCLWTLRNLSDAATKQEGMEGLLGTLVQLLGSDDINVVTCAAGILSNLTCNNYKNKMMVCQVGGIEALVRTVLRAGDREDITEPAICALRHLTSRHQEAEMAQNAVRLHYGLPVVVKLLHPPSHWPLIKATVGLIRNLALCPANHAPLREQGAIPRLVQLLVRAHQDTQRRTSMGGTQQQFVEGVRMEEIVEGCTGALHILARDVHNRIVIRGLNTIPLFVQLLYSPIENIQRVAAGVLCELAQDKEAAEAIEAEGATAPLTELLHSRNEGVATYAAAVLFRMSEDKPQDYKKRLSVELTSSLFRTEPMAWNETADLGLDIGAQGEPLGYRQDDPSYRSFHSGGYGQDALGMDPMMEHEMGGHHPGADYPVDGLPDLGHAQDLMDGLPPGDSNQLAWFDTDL
Summary of the method: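 First, β-catenin at 100 nM is mixed with 5 nM labelled TCF4 at room temperature. Next, compound is added across serial dilutions (10 nM to 30 uM). Finally, fluorescence polarization is measured (ex 470 nm, em 520 nm); experiments are done three times.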

in vitro = conditions: % Viability non-Wnt responsive cells
[2] = % Viability non-Wnt responsive cells

Compound CC[C@H](C)[C@H](NC(=O)[C@H](CC(C)C)NC(=O)[C@H](Cc1ccccc1)NC(=O)[C@H](Cc1c[nH]c2ccccc12)NC(=O)[C@H](CCSC)NC(=O)[C@H](CCCNC(=N)N)NC(=O)[C@H](CO)NC(=O)[C@@H](N)CCSC)C(=O)N[C@@H](CO)C(=O)N[C@@H](Cc1ccccc1)C(=O)N[C@@H](Cc1c[nH]c2ccccc12)C(=O)N[C@@H](CCSC)C(=O)NCC(=O)O [compound 14] (H-MSRMWFLISFWMG-OH) has an EC50 [1] of under 7.5 µM, a Kd (β-catenin) of over 30 µM and a viability (in vitro) of 98%.
CC[C@H](C)[C@H](NC(=O)[C@H](CC(C)C)NC(=O)[C@H](Cc1ccccc1)NC(=O)[C@H](Cc1c[nH]c2ccccc12)NC(=O)[C@H](CCSC)NC(=O)[C@H](CCCNC(=N)N)NC(=O)[C@@H](NC(=O)[C@@H](N)CCSC)[C@@H](C)CC)C(=O)N[C@@H](CO)C(=O)N[C@@H](Cc1ccccc1)C(=O)N[C@@H](Cc1c[nH]c2ccccc12)C(=O)NCC(=O)O [compound 15] (H-MIRMWFLISFWG-OH) gave an EC50 [1] of under 7.5 µM and a viability (in vitro) of 103%.
Compound CC[C@H](C)[C@H](NC(=O)[C@H](CO)NC(=O)[C@H](CCC(=O)O)NC(=O)[C@H](Cc1c[nH]c2ccccc12)NC(=O)[C@@H](N)CCSC)C(=O)N[C@@H](CC(C)C)C(=O)N[C@@H](CC(=O)O)C(=O)N[C@@H](CCC(=O)O)C(=O)N[C@@H](Cc1c[nH]cn1)C(=O)N[C@H](C(=O)N[C@@H](CCC(N)=O)C(=O)N[C@@H](CCCNC(=N)N)C(=O)N[C@H](C(=O)N[C@@H](Cc1c[nH]c2ccccc12)C(=O)NCC(=O)O)C(C)C)C(C)C [compound 22] (H-MWESILDEHVQRVWG-OH) has an EC50 [1] of over 30 µM and a viability (in vitro) of 99.6%.
CC[C@H](C)[C@@H]1NC(=O)[C@H](CC(C)C)NC(=O)[C@H](CC(C)C)NC(=O)[C@H](Cc2c[nH]c3ccccc23)NC(=O)[C@H](CCSC)NC(=O)[C@H](CCCNC(=N)N)NC(=O)[C@H](CO)NC(=O)[C@H](CCSC)NC(=O)[C@@H](N)CCCCNC(=O)CNC(=O)[C@H](Cc2c[nH]c3ccccc23)NC(=O)[C@H](Cc2ccccc2)NC(=O)[C@H](CO)NC1=O [compound 25] (HELM PEPTIDE1{K.M.S.R.M.W.L.L.I.S.F.W.G}$PEPTIDE1,PEPTIDE1,1:R3-13:R2$$$V2.0; bridges inferred) gave an EC50 [1] of 7.5 to 15 µM and a viability (in vitro) of 97%.
For CC[C@H](C)[C@@H]1NC(=O)[C@H](CC(C)C)NC(=O)[C@H](Cc2ccccc2)NC(=O)[C@H](Cc2c[nH]c3ccccc23)NC(=O)[C@H](CCSC)NC(=O)[C@@H](N)CCCCNC(=O)CNC(=O)[C@H](Cc2c[nH]c3ccccc23)NC(=O)[C@H](Cc2ccccc2)NC(=O)[C@H](CO)NC1=O [compound 26] (HELM PEPTIDE1{K.M.W.F.L.I.S.F.W.G}$PEPTIDE1,PEPTIDE1,1:R3-10:R2$$$V2.0; bridges inferred), the EC50 [1] was 7.5 to 15 µM and the viability (in vitro) was 88%.
In the case of CC[C@H](C)[C@@H]1NC(=O)[C@H](CC(C)C)NC(=O)[C@H](Cc2ccc(O)cc2)NC(=O)[C@H](Cc2c[nH]c3ccccc23)NC(=O)[C@H](CCSC)NC(=O)[C@H](CCCNC(=N)N)NC(=O)[C@H](CO)NC(=O)[C@H](CCSC)NC(=O)[C@@H](N)CCCCNC(=O)CNC(=O)[C@H](Cc2c[nH]c3ccccc23)NC(=O)[C@H](Cc2ccccc2)NC(=O)[C@H](CO)NC1=O [compound 27] (HELM PEPTIDE1{K.M.S.R.M.W.Y.L.I.S.F.W.G}$PEPTIDE1,PEPTIDE1,1:R3-13:R2$$$V2.0; bridges inferred), the EC50 [1] is reported as over 30 µM and the viability (in vitro) is reported as 96%.
Compound CC[C@H](C)[C@@H]1NC(=O)[C@H](CC(C)C)NC(=O)[C@H](Cc2ccccc2)NC(=O)[C@H](Cc2c[nH]c3ccccc23)NC(=O)[C@H](CCSC)NC(=O)[C@H](CCCNC(=N)N)NC(=O)[C@H](CO)NC(=O)[C@H](CCSC)NC(=O)[C@@H](N)CCCCNC(=O)CNC(=O)[C@H](Cc2c[nH]c3ccccc23)NC(=O)[C@H](CC(C)C)NC(=O)[C@H](CO)NC1=O [compound 28] (HELM PEPTIDE1{K.M.S.R.M.W.F.L.I.S.L.W.G}$PEPTIDE1,PEPTIDE1,1:R3-13:R2$$$V2.0; bridges inferred) has an EC50 [1] of 22.5 to 30 µM and a viability (in vitro) of 91%.
For CC[C@H](C)[C@H](NC(=O)[C@H](CC(C)C)NC(=O)[C@H](Cc1ccccc1)NC(=O)[C@H](Cc1c[nH]c2ccccc12)NC(=O)[C@@H](N)CCSC)C(=O)N[C@@H](CSC)C(=O)N[C@@H](Cc1ccccc1)C(=O)N[C@@H](Cc1c[nH]c2ccccc12)C(=O)NCC(=O)O [compound 214] (H-MWFLIC(Me)FWG-OH), the EC50 [1] was under 7.5 µM, the “β-Cat FP Hill slope” value (β-catenin) was 0.7 and the Kd (β-catenin) was 0.4 to 1 µM. For the same compound, the viability [2] was 102%.
With CC[C@H](C)[C@H](NC(=O)[C@H](CC(C)C)NC(=O)[C@H](CC1CCCCC1)NC(=O)[C@H](Cc1c[nH]c2ccccc12)NC(=O)[C@H](CCSC)NC(C)=O)C(=O)N[C@@H](CO)C(=O)N[C@@H](Cc1ccccc1)C(=O)N[C@@H](Cc1c[nH]c2ccccc12)C(=O)NCC(=O)O [compound 216] (HELM PEPTIDE1{[ac].M.W.[Cha].L.I.S.F.W.G}$$$$V2.0) the EC50 [1] was under 7.5 µM, the “β-Cat FP Hill slope” value (β-catenin) was 1.35 and the Kd (β-catenin) was 0.4 to 1 µM. For the same compound, the viability [2] was 100%.
For CC[C@H](C)[C@H](NC(=O)[C@H](CC(C)C)NC(=O)[C@@H](NC(=O)[C@H](Cc1c[nH]c2ccccc12)NC(=O)[C@H](CCSC)NC(C)=O)C1CCCCC1)C(=O)N[C@@H](CO)C(=O)N[C@@H](Cc1ccccc1)C(=O)N[C@@H](Cc1c[nH]c2ccccc12)C(=O)NCC(=O)O [compound 217] (HELM PEPTIDE1{[ac].M.W.[O=C([C@@H](N[*:1])C1CCCCC1)[*:2]].L.I.S.F.W.G}$$$$V2.0), the EC50 [1] was under 7.5 µM, the “β-Cat FP Hill slope” value (β-catenin) was 1.47 and the Kd (β-catenin) was under 0.4 µM. It also gave a viability [2] of 87.9%.
For CC[C@H](C)[C@H](NC(=O)[C@H](CC(C)C)NC(=O)[C@H](CC(C)C)NC(=O)[C@H](Cc1c[nH]c2ccccc12)NC(=O)[C@H](CCSC)NC(C)=O)C(=O)N[C@@H](CO)C(=O)N[C@@H](Cc1ccccc1)C(=O)N[C@@H](Cc1c[nH]c2ccccc12)C(=O)NCC(=O)O [compound 218] (Ac-MWLLISFWG-OH), the EC50 [1] was under 7.5 µM, the “β-Cat FP Hill slope” value (β-catenin) was 1.85 and the Kd (β-catenin) was under 0.4 µM. The viability [2] was 90.8%.
With CC[C@H](C)[C@H](NC(=O)[C@H](CC(C)C)NC(=O)[C@H](Cc1ccccc1)NC(=O)[C@H](Cc1c[nH]c2ccccc12)NC(=O)[C@H](CCSC)NC(C)=O)C(=O)N[C@@H](CO)C(=O)N[C@@H](Cc1ccccc1)C(=O)N[C@@H](Cc1c[nH]c2ccccc12)C(=O)NCC(=O)O [compound 219] (Ac-MWFLISFWG-OH) the EC50 [1] was under 7.5 µM, the “β-Cat FP Hill slope” value (β-catenin) was 0.86 and the Kd (β-catenin) was 0.4 to 1 µM. For the same compound, the viability [2] was 90.6%.
With CC[C@H](C)[C@H](NC(=O)[C@H](CC(C)C)NC(=O)[C@H](Cc1ccccc1)NC(=O)[C@H](Cc1c[nH]c2ccccc12)NC(C)=O)C(=O)N[C@@H](CO)C(=O)N[C@@H](Cc1ccccc1)C(=O)N[C@@H](Cc1c[nH]c2ccccc12)C(=O)NCC(=O)O [compound 220] (Ac-WFLISFWG-OH) the EC50 [1] was under 7.5 µM, the “β-Cat FP Hill slope” value (β-catenin) was 2.99 and the Kd (β-catenin) was 0.4 to 1 µM. It also gave a viability [2] of 93.2%.
For CC[C@H](C)[C@H](NC(=O)[C@H](CC(C)C)NC(=O)[C@@H](NC(=O)[C@H](Cc1c[nH]c2ccccc12)NC(=O)[C@H](CCSC)NC(C)=O)[C@@H](C)CC)C(=O)N[C@@H](CO)C(=O)N[C@@H](Cc1ccccc1)C(=O)N[C@@H](Cc1c[nH]c2ccccc12)C(=O)NCC(=O)OC [compound 222] (HELM PEPTIDE1{[ac].M.W.I.L.I.S.F.W.G.[CO[*:1]]}$$$$V2.0), the EC50 [1] was 7.5 to 15 µM, the “β-Cat FP Hill slope” value (β-catenin) was 1.56 and the Kd (β-catenin) was 1 to 10 µM. It also gave a viability [2] of 98.2%.
With CC[C@H](C)[C@H](NC(=O)[C@H](CC(C)C)NC(=O)[C@@H](NC(=O)[C@H](Cc1c[nH]c2ccccc12)NC(=O)[C@H](CCSC)NCc1ccccc1)[C@@H](C)CC)C(=O)N[C@@H](CO)C(=O)N[C@@H](Cc1ccccc1)C(=O)N[C@@H](Cc1c[nH]c2ccccc12)C(=O)NCC(=O)O [compound 223] (HELM PEPTIDE1{[CSCC[C@H](NCc1ccccc1)C(=O)[*:2]].W.I.L.I.S.F.W.G}$$$$V2.0) the EC50 [1] was under 7.5 µM, the “β-Cat FP Hill slope” value (β-catenin) was 0.7 and the viability [2] was 101%.
For CC[C@H](C)[C@H](NC(=O)[C@H](CC(C)C)NC(=O)[C@@H](NC(=O)[C@H](Cc1c[nH]c2ccccc12)NC(=O)[C@H](CCSC)NC(=O)C(C)(C)C)[C@@H](C)CC)C(=O)N[C@@H](CO)C(=O)N[C@@H](Cc1ccccc1)C(=O)N[C@@H](Cc1c[nH]c2ccccc12)C(=O)NCC(=O)O [compound 225] (HELM PEPTIDE1{[CC(C)(C)C(=O)[*:2]].M.W.I.L.I.S.F.W.G}$$$$V2.0), the EC50 [1] was under 7.5 µM, the “β-Cat FP Hill slope” value (β-catenin) was 0.7 and the Kd (β-catenin) was 0.4 to 1 µM. For the same compound, the viability [2] was 101%.
